Data published in US7572786B2, “Substituted 1-piperidin-3-yl-4-piperidin-4-yl-piperazine derivatives and their use as neurokinin antagonists” (Janssen Pharmaceutica, N.V., priority 2002, dated 2009).

Experiments:
Format in all cases: cell-based
NK2 = target: T1, NK2 (Homo sapiens, UniProt P21452); assay: Signal transduction (ST), intracellular Ca++ (FLIPR), NK2; conditions: for IC50: read-out: pIC50 NK2 (converted)
T1 sequence (P21452 1-398): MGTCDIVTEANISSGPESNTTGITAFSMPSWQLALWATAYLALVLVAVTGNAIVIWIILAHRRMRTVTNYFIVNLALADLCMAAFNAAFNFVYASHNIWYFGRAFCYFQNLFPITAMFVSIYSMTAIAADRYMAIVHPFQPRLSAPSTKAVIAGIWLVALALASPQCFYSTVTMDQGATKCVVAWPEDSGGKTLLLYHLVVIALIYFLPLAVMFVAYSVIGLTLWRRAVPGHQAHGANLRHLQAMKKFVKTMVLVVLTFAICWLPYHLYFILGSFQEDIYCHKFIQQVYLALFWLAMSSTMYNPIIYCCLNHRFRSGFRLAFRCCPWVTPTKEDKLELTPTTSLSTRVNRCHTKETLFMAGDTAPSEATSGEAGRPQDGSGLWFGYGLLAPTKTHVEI
Protocol: [The source words this procedure for another target and reports this target under the same test.] (§1) This test evaluates in vitro functional NK1 antagonistic activity. For the measurements of intracellular Ca^++ concentrations the cells were grown on 96-well (black wall/transparent bottom) plates from Costar for 2 days until they reached confluence. The cells were loaded with 2 μM Fluo3 in DMEM containing 0.1% BSA and 2.5 mM probenecid for 1 h at 37° C. […] The cells were preincubated with a concentration range of antagonists for 20 min at RT and Ca^++-signals after addition of the agonists were measured in a Fluorescence Image Plate Reader (FLIPR from Molecular Devices, Crawley, England). The peak of the Ca^++-transient was considered as the relevant signal and the mean values of corresponding wells were analysed as described below.
(§2) The sigmoidal dose response curves were analysed by computerised curve-fitting, using the GraphPad Program. […] For antagonist responses the IC50-value was calculated using non-linear regression.

NK1 = NK1 (Homo sapiens, UniProt P25103); assay: Signal transduction (ST), intracellular Ca++ (FLIPR), NK1 antagonism; conditions: for IC50: read-out: pIC50 NK1 (converted)
Sequence of NK1 (P25103 whole entry): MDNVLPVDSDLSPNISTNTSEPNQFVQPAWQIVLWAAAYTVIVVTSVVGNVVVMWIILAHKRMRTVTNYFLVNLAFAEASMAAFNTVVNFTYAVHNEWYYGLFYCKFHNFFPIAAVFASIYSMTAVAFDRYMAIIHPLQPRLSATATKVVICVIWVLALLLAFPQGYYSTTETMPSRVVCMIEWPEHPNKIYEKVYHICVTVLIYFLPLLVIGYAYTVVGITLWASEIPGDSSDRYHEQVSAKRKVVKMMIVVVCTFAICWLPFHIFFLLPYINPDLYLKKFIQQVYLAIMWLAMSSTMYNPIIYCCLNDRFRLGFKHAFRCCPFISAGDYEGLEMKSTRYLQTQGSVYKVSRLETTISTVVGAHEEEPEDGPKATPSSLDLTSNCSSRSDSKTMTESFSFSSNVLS
Protocol: as §1, §2

NK3 = target: T2, NK3 (Homo sapiens, UniProt P29371); assay: Signal transduction (ST), intracellular Ca++ (FLIPR), NK3; conditions: for IC50: read-out: pIC50 NK3 (converted)
T2 sequence (P29371 1-465): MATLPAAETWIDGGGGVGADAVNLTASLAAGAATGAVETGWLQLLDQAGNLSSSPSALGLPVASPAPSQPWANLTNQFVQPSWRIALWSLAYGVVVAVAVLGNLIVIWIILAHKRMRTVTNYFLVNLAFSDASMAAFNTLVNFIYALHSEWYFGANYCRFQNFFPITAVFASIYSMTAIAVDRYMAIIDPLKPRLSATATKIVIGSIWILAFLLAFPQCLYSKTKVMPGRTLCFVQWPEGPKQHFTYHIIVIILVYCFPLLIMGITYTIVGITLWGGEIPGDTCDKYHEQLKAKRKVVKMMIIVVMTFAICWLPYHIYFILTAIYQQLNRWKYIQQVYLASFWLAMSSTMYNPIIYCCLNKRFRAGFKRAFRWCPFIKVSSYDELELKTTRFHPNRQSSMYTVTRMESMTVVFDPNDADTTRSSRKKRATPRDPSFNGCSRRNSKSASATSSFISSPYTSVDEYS
Protocol: [The source words this procedure for another target and reports this target under the same test.] as §1, §2

O=C(Nc1ccccc1F)N1CCCC(N2CCN([C@H]3CCN(C(=O)c4cc(C(F)(F)F)cc(C(F)(F)F)c4)[C@H](Cc4ccccc4)C3)CC2)C1 (stereo partly drawn) [Compound 65]
IC50 (NK2): 1.58 µM | IC50 (NK1): 10 nM | IC50 (NK3): 6310 nM

O=C(c1cc(COCc2ccccc2)cs1)N1CCCC(N2CCN([C@H]3CCN(C(=O)c4cc(C(F)(F)F)cc(C(F)(F)F)c4)[C@H](Cc4ccccc4)C3)CC2)C1 (stereo partly drawn) [Compound 85]
IC50 (NK2): 3.98 µM | IC50 (NK1): 79.4 nM | IC50 (NK3): 5010 nM

O=C(c1cc(C(F)(F)F)cc(C(F)(F)F)c1)N1CC[C@H](N2CCN(C3CCCN(S(=O)(=O)c4cccs4)C3)CC2)C[C@H]1Cc1ccccc1 (stereo partly drawn) [Compound 25]
pIC50 NK2 (NK2): 6.4 | pIC50 NK1 (NK1): 7.8 | pIC50 NK3 (NK3): 7.1

O=C(c1cccc(O)c1)N1CCCC(N2CCN([C@H]3CCN(C(=O)c4cc(C(F)(F)F)cc(C(F)(F)F)c4)[C@H](Cc4ccccc4)C3)CC2)C1 (stereo partly drawn) [Compound 70]
IC50 (NK2): 3.98 µM | IC50 (NK1): 7.94 nM | IC50 (NK3): 1260 nM

O=C(c1cccnc1)N1CCCC(N2CCN([C@H]3CCN(C(=O)c4cc(C(F)(F)F)cc(C(F)(F)F)c4)[C@H](Cc4ccccc4)C3)CC2)C1 (stereo partly drawn) [Compound 23]
IC50 (NK2): 3.98 µM | IC50 (NK1): 20 nM | IC50 (NK3): 2000 nM

CC(=O)OCC(c1ccccc1Cl)N1CCCC(N2CCN(C3CCN(C(=O)c4cc(C(F)(F)F)cc(C(F)(F)F)c4)C(Cc4ccccc4)C3)CC2)C1 (stereo not drawn) [Compound 124]
IC50 (NK2): 5.01 µM | IC50 (NK1): 398 nM | IC50 (NK3): 2510 nM

O=C(C1CC1)N1CCCC(N2CCN([C@H]3CCN(C(=O)c4cc(C(F)(F)F)cc(C(F)(F)F)c4)[C@H](Cc4ccccc4)C3)CC2)C1 (stereo partly drawn) [Compound 15]
IC50 (NK2): 6.31 µM | IC50 (NK1): 12.6 nM | IC50 (NK3): 158 nM

O=C(c1ccccc1Cl)N1CCCC(N2CCN([C@H]3CCN(C(=O)c4cc(C(F)(F)F)cc(C(F)(F)F)c4)[C@H](Cc4ccccc4)C3)CC2)C1 (stereo partly drawn) [Compound 10]
IC50 (NK2): 3.98 µM | IC50 (NK1): 25.1 nM | IC50 (NK3): 501 nM

O=C(c1cc(C(F)(F)F)cc(C(F)(F)F)c1)N1CC[C@H](N2CCN(C3CCCN(S(=O)(=O)c4ccccc4)C3)CC2)C[C@H]1Cc1ccccc1 (stereo partly drawn) [Compound 28]
IC50 (NK2): 2 µM | IC50 (NK1): 10 nM | IC50 (NK3): 158 nM

O=C(Cc1cccs1)N1CCCC(N2CCN([C@H]3CCN(C(=O)c4cc(C(F)(F)F)cc(C(F)(F)F)c4)[C@H](Cc4ccccc4)C3)CC2)C1 (stereo partly drawn) [Compound 43]
IC50 (NK2): 2 µM | IC50 (NK1): 10 nM | IC50 (NK3): 501 nM

O=C(c1cc(C(F)(F)F)cc(C(F)(F)F)c1)N1CC[C@H](N2CCN(C3CCCN(S(=O)(=O)c4ccc(CO)s4)C3)CC2)C[C@H]1Cc1ccccc1 (stereo partly drawn) [Compound 92]
IC50 (NK2): 0.501 µM | IC50 (NK1): 12.6 nM | IC50 (NK3): 158 nM

COc1ccccc1S(=O)(=O)N1CCCC(N2CCN([C@H]3CCN(C(=O)c4cc(C(F)(F)F)cc(C(F)(F)F)c4)[C@H](Cc4ccccc4)C3)CC2)C1 (stereo partly drawn) [Compound 68]
pIC50 NK2 (NK2): 5.8 | pIC50 NK1 (NK1): 8.0 | pIC50 NK3 (NK3): 5.8

Cn1cnc(C(=O)N2CCCC(N3CCN([C@H]4CCN(C(=O)c5cc(C(F)(F)F)cc(C(F)(F)F)c5)[C@H](Cc5ccccc5)C4)CC3)C2)c1 (stereo partly drawn) [Compound 63]
IC50 (NK2): 3.16 µM | IC50 (NK1): 5.01 nM | IC50 (NK3): 6310 nM

Cc1nnsc1C(=O)N1CCCC(N2CCN([C@H]3CCN(C(=O)c4cc(C(F)(F)F)cc(C(F)(F)F)c4)[C@H](Cc4ccccc4)C3)CC2)C1 (stereo partly drawn) [Compound 22]
IC50 (NK2): 2.51 µM | IC50 (NK1): 10 nM | IC50 (NK3): 501 nM

O=C(c1cc(C(F)(F)F)cc(C(F)(F)F)c1)N1CC[C@H](N2CCN(C3CCCN(S(=O)(=O)c4ccc(CO)cc4)C3)CC2)C[C@H]1Cc1ccccc1 (stereo partly drawn) [Compound 73]
IC50 (NK2): 0.794 µM | IC50 (NK1): 7.94 nM | IC50 (NK3): 251 nM

O=C(OCc1ccccc1C(=O)N1CCCC(N2CCN([C@H]3CCN(C(=O)c4cc(C(F)(F)F)cc(C(F)(F)F)c4)[C@H](Cc4ccccc4)C3)CC2)C1)c1ccccc1 (stereo partly drawn) [Compound 82]
IC50 (NK2): 3.16 µM | IC50 (NK1): 63.1 nM | IC50 (NK3): 7940 nM
